From patent US20110033944A1, “METHOD FOR MEASURING HYPOCHLORITE ION” (SEKISUI MEDICAL CO., LTD., priority 2003, published 2011)

Columns and labels:
[1] = Reactivity of fluorescence probe to hydrogen peroxide; format: physicochemical; settings: 10 μM probe, H2O2 100 μM, pH 7.4, 37° C.
Description: (§1) In the following example, a compound wherein R^1 is 2-carboxyphenyl group, and R^2 is 4-aminophenyl group in the general formula (I) (hereinafter referred to as “APF”) and a compound wherein R^3 is 2-carboxyphenyl group, and R^4 is 4-hydroxyphenyl group in the general formula (II) (hereinafter referred to as “HPF”) were used. Each of HPF and APF is dissolved in dimethylformamide (DMF) to obtain a 10 mM solution, and then added with a 100 mM sodium phosphate buffer (pH 7.4) to obtain a final concentration of 10 μM, unless otherwise specifically mentioned.
(§2) Excitation spectra and fluorescence spectra were analyzed with Hitachi F4500. The slit width was 2.5 nm in both of the excitation spectra and fluorescence spectra. The photomultiplier voltage was 950 V. Unless otherwise specifically mentioned, excitation wavelength was 490 nm, fluorescence wavelength was 515 nm, and the measurement was performed at 37° C.
(§3) Reactivities of APF and HPF to various reactive species containing oxygen were studied. […] The measurement was performed with excitation wavelength at 500 nm and with fluorescence wavelength at 520 nm for DCFH.
A 10 μM fluorescence probe solution was put in a fluorescence cell, added with H2O2 (a final concentration of 100 μM), and was reacted for 30 minutes. Fluorescence intensities before the addition of H2O2 and 30 minutes after the addition were measured.

[2] = Reactivity of fluorescence probe to singlet oxygen (EP-1); format: physicochemical; settings: 10 μM probe, EP-1 100 μM, pH 7.4, 37° C.
Description: as §1, §2, §3
A 10 μM fluorescence probe solution was put in a fluorescence cell, added with 3-(1,4-dihydro-1,4-epidioxy-1-naphthyl)propionic acid (EP-1; a final concentration of 100 μM), and was reacted for 30 minutes. […]

[3] = Reactivity of fluorescence probe to nitric oxide (NOC13); format: physicochemical; settings: 10 μM probe, NOC13 100 μM, pH 7.4, 37° C.
Description: as §1, §2, §3
A 10 μM fluorescence probe solution was put in a fluorescence cell, added with 1-hydroxy-2-oxo-3-(3-aminopropyl)-3-ethyl-1-triazine (NOC13; a final concentration of 100 μM), and was reacted for 30 minutes. […]

[4] = Reactivity of fluorescence probe to hypochlorite ion (sodium hypochlorite); format: physicochemical; settings: 10 μM probe, sodium hypochlorite 1.0 μM, pH 7.4, 37° C.
Description: as §1, §2, §3
A 10 μM fluorescence probe solution was put in a fluorescence cell, added with an aqueous sodium hypochlorite solution (a final concentration of 1.0 μM). Fluorescence intensities before and after the addition of an aqueous sodium hypochlorite solution were measured.

[5] = Reactivity of fluorescence probe to superoxide (KO2); format: physicochemical; settings: 10 μM probe, KO2 100 μM, pH 7.4, 37° C.
Description: as §1, §2, §3
A 10 μM fluorescence probe solution was put in a fluorescence cell, added with KO2 (a final concentration of 100 μM), and was reacted for 30 minutes. Fluorescence intensities before the addition of KO2 and 30 minutes after the addition were measured.

[6] = Reactivity of fluorescence probe to hydroxyl radical (H2O2 / ferrous perchlorate); format: physicochemical; settings: 10 μM probe, H2O2 1 mM + ferrous perchlorate 100 μM, pH 7.4, room temperature
Description: as §1, §2, §3
A 10 μM fluorescence probe solution was added with an aqueous hydrogen peroxide solution (a final concentration of 1 mM), and further slowly added with an aqueous ferrous perchlorate (a final concentration of 100 μM). […]

Myeloperoxidase (human) = assay: Myeloperoxidase/H2O2 system, fluorescence measurement of generated hypochlorite ion; format: biochemical; settings: 10 μM probe, myeloperoxidase 11.2 nM, 150 mM NaCl, 37° C.
Description: as §1, §2
(A) By using a 100 mM sodium phosphate buffer (pH 7.4) containing 150 mM sodium chloride, a 10 μM HPF solution and a 10 μM APF solution were prepared. Myeloperoxidase (human) were added to these solutions to obtain a final concentration of 11.2 nM. Each of the solution was put in each fluorescence cell, and a change in the fluorescence intensity with passage of time was measured. The temperature of the solutions were set at 37° C. […]

neutrophils = assay: Fluorescence imaging of PMA-stimulated neutrophils; format: cell-based, porcine; settings: 10 μM probe, PMA 2 ng/mL, excitation 488 nm, emission 505-550 nm
Description: According to the method described in Wakeyama, H., Takeshige, K., Takayanagi, R., and Minakami S. (1982) Biochem. J. 205, 593-601 and Kakinuma, K., Kaneda, M., Chiba, T., and Ohnishi, T. (1986) J. Biol. Chem. 261, 9426-9432, neutrophils were obtained from 1.8 liters of porcine blood. Erythrocytes in the buffy coat collected from the blood were hemolyzed with a large volume of an ice-cooled 0.2% aqueous sodium chloride solution for […] and then the preparation was promptly mixed with an equal volume of a 1.6% aqueous sodium chloride solution to restore the isotonic condition. Neutrophils were separated from platelets and mononuclear cells by the Conrey-Ficoll method. The neutrophils were suspended in Krebs Ringer phosphate buffer (114 mM NaCl, 4.6 mM KCl, 2.4 mM MgSO4, 1.0 mM, CaCl2, 15 mM NaH2PO4/Na2HPO4, pH7.4).
The separated neutrophils were seeded onto a glass-bottomed dish. Then the cells were loaded with HPF or APF (10 μM) after incubation for 30 minutes at room temperature. These neutrophils were stimulated with 4β-phorbol-12-myristate-13-acetate (PMA)(2 ng/mL). Fluorescence imaging was measured twice in each experiment: one is before and the other is 10 minutes after the stimulation with PMA. […]

Compound	Reactivity to hydrogen peroxide (fluorescence intensity before and 30 minutes after addition) [1]	Reactivity to singlet oxygen (fluorescence intensity before and 30 minutes after addition) [2]	Reactivity to nitric oxide (fluorescence intensity before and 30 minutes after addition) [3]	Reactivity to hypochlorite ion (fluorescence intensity before and after addition) [4]	Reactivity to superoxide (fluorescence intensity before and 30 minutes after addition) [5]	Reactivity to hydroxyl radical (fluorescence intensity before and after addition) [6]	Change in fluorescence intensity with time on addition of hydrogen peroxide (FIG. 1(A)) (Myeloperoxidase (human); H2O2 1 μM)	Increase in fluorescence intensity before and after addition of hydrogen peroxide (FIG. 1(B)) (Myeloperoxidase (human); H2O2 0.1-1.0 μM, 5 minutes)	Fluorescence intensity of probe-loaded neutrophils before and 10 minutes after stimulation with PMA (neutrophils)
O=C(O)c1ccccc1C1c2cc(Cl)c(O)cc2Oc2cc(O)c(Cl)cc21 [DCFH, 2′,7′-dichlorodihydrofluorescein, reference compound]	190	26	150	86	67	7400	–	–	–
Nc1ccc(Oc2ccc3c(-c4ccccc4C(=O)O)c4ccc(=O)cc-4oc3c2)cc1 [APF]	<1	9	<1	–	6	–	a significant increase in the fluorescence intensity was observed	fluorescence intensity was increased in a manner dependent on the concentration of the added hydrogen peroxide	a significant increase was observed in fluorescence intensity
